Measurements: patent publication US12083157B2, “Use of polylysine dendrimers in the prevention and management of acne-prone skin and acneic skin” (Lucas Meyer Cosmetics, priority 2019, dated 2024)
Values joined by “and” are separate entries in the source; they are usually repeats but may differ in a detail not shown here. Equal values may be shown once.

Columns and labels:
[1] = test system: C. acnes strain IP 53117T; test: Inhibition of C. acnes growth in culture (MIC, 96-well plates); type: cell-based, Cutibacterium acnes; settings: C. acnes strain IP 53117T (phylotype IA1); 24 to 48 hours at 37° C.
Experimental: The effectiveness of G2 dendrimer for inhibiting the growth of C. acnes in culture was assessed. G2 dendrimer was used at a final concentration ranging between 10^−2 M and 10^−5M. Experiments were performed using C. acnes strain IP 53117T (see FR2844715 A1), a strain known to cause acne. This strain belongs to a ribotype 1 (RT1) from phylotype 1A1 and is thus an acneic strain.
Bacteria (10^8 CFU/ml) were inoculated in 96-well plates containing a range of G2 dendrimer concentrations.

[2] = test system: adhesion of tritium-labeled C. acnes IP 53117T to keratinocytes (NCTC 2544); test: C. acnes adhesion to keratinocytes, Method 1 (concomitant, 2 hours); type: cell-based, Cutibacterium acnes; settings: after 2 hours, vs absence of G2 dendrimer
Experimental: (§1) Keratinocytes were isolated from the human epithelial cell line NCTC 2544 (Neufahrt, et al. (1978) Arch. Dermaol. Res. 256(3):255-60). Culture were maintained with Dulbecco's modified Eagle's medium (DMEM) containing 10% fetal calf serum, 1% antibiotics (penicillin/streptomycin), and 1% L-glutamine at 37° C. under 5% CO2 and 95% humidity.
To monitor bacterial adhesion, adenine of the IP 53117T bacterial strain (belonging to acneic phylotype IA1) was labeled with tritium and bacterial adhesion to the surface of keratinocytes was determined by counting the radioactivity. • Method 1. […] After incubation for 2 hours (37° C., 5% CO2), cells were washed with phosphate-buffered saline (PBS) to remove non-adherent bacteria. • Method 2. The keratinocytes were pretreated for 24 hours with the G2 dendrimer. Labeled bacteria (2×10^8 microorganisms/mL) was then added to the cell monolayer for 2 hours without prior removal of the G2 dendrimer.

[3] = test system: adhesion of tritium-labeled C. acnes IP 53117T to keratinocytes (NCTC 2544); test: C. acnes adhesion to keratinocytes, Method 2 (24-hour pretreatment); type: cell-based, Cutibacterium acnes
Experimental: as §1
To monitor bacterial adhesion, adenine of the IP 53117T bacterial strain (belonging to acneic phylotype IA1) was labeled with tritium and bacterial adhesion to the surface of keratinocytes was determined by counting the radioactivity. • Method 1. Labeled bacteria (2×10^8 microorganisms/mL) were combined with varying amounts of G2 dendrimer (final concentration between 10^−5M and 6.25×10^−6 M) and deposited on the surface of a monolayer of keratinocytes. After incubation for 2 hours (37° C., 5% CO2), cells were washed with phosphate-buffered saline (PBS) to remove non-adherent bacteria. • Method 2. The keratinocytes were pretreated for 24 hours with the G2 dendrimer. Labeled bacteria (2×10^8 microorganisms/mL) was then added to the cell monolayer for 2 hours without prior removal of the G2 dendrimer.

IL-8 = test: IL1-α-induced IL-8 production in normal human dermal fibroblasts (ELISA); type: cell-based
Experimental: There is evidence that C. acnes is involved in invoking an inflammatory response. […] Therefore, the effect of the G2 dendrimer on inflammation in normal human dermis fibroblasts (NHDF) was assessed. NHDF were isolated from human dermis and maintained in DMEM containing 10% fetal calf serum, 1% antibiotics (penicillin/streptomycin) and 1% L-glutamine at 37° C. under 5% CO2 and 95% humidity.
IL-8 mediates inflammatory reactions in the skin through the recruitment of neutrophils and other immune cells to invade injured or inflamed tissue. IL-8 secretion is inducible in cultured human dermal fibroblasts following activation with the pro-inflammatory cytokine IL-la (Larsen, et al. (1989) Immunology 68(1):31-6). Accordingly, non-confluent NHDF cells were treated with IL1-α (0.1 ng/mL), as an inducer of IL-8 production, in the presence or absence of G2 dendrimer (10^−9M, 10^−8M, 10^−7M or 10^−6 M) or hydrocortisone (0.05 μg/mL) as the positive anti-inflammatory control. IL-8 release from fibroblasts was determined by enzyme-linked immunosorbent assay (ELISA).

[4] = test system: stratum corneum of human skin explants; test: Keratolytic effect in human skin explants exposed to C. acnes; type: cell-based; settings: explants at day 8
Experimental: (§2) Skin Treatment. Fifteen human skin specimens were obtained from patients undergoing plastic surgery (Caucasian women, 26 years old). Skin explants were maintained in culture for 8 days. A 1-hour treatment with G2 dendrimer (2 and 5 ppm) was concomitant with application of freeze-dried C. acnes (30 μL) at days 0, 1, 4 and 6 (FIG. 2). At day 8, explants were fixed and embedded in paraffin. Thick sections of 5 μm were stained with Masson's Trichrome stain or an anti-TLR2 antibody.
Evaluation of Keratolytic Effect. The general morphology and in particular stratum corneum of the explants were analyzed. Images were taken with a Leica Orthoplan microscope equipped with a digital camera (tri-CCD) driven by the acquisition and archiving software Leica IM1000.

TLR2 = TLR2 immunostaining in human skin explants challenged with C. acnes; type: cell-based; settings: topical application at 2 and 5 ppm
Experimental: as §2
Immunostaining of TLR2 TLR2 is known to mediate the inflammatory response of skin to acne (Kim, et al. (2002) 1 Immunol. 169(3):1535-41; McInturff & Kim (2005) Semin. Cutan. Med. Surg. 24(2):73-8). Accordingly, TLR2 protein in frozen sections was assessed with an anti-TLR2 (clone TL2.1; Santa Cruz). Sections were incubated with a 1:25 dilution of the anti-TLR2 antibody overnight at 4° C. and antibody binding was subsequently detected with biotin/streptavidin-FITC conjugate. Nuclei were stained with propidium iodide.

IL1-α = IL1-α quantification in culture media of human skin explants (ELISA); type: cell-based
Experimental: as §2
Quantification of IL1-α Cytokine. The concentration of IL1-α in the culture media was determined using an ELISA assay kit (Cayman, Ann Arbor, MI). The absorbances were measured using a microplate reader Tecan Infinite M200 Pro, combined with Magellan's software.

[5] = test system: C. acnes acneic strain RT4 (phylotype IA1); test: Membrane fluidity of C. acnes strain RT4; type: cell-based, Cutibacterium acnes; settings: 6·10^−6M, 72 h of incubation
[6] = test system: C. acnes acneic strain RT5 (phylotype IA1); test: Membrane fluidity of C. acnes strain RT5; type: cell-based, Cutibacterium acnes; settings: 6·10^−6M, 72 h of incubation
[7] = test system: C. acnes non-acneic strain RT6 (phylotype II); test: Membrane fluidity of C. acnes strain RT6; type: cell-based, Cutibacterium acnes; settings: 6·10^−6 M, 72 h of incubation
Experimental: The impact of G2 dendrimer on the membrane fluidity of three bacterial strains of Cutibacterium acnes was tested. Two of the tested strains of C. acnes are “acneic” strains belonging to phylotype IA1 (RT4 and RT5) while the last one is a non-acneic strain (RT6) belonging to phylotype II. Several colonies of RT4, RT5 and RT6 (C. acnes strains) were scrapped and put in reinforced clostridial medium (RMC medium). The tubes were vortexed few seconds and homogenized before to be completely filled out with RMC in order to create anaerobic state. The tubes were then incubated at 37° C. for at least 48 h.
Bacterial cultures were collected and the OD was taken at 580 nm. After inoculation, the bacteria were sending in microplate and treated or not with G2 dendrimer. After 2 hours in anaerobic chamber, the plate was transferred in microplate reader for 72 h (OD 580 nm with measurement every 30 min). Then, the generation time of the bacteria was analyzed for each C. acnes strains. The G2 Dendrimer was tested at the following concentrations: 6·10^−6M, and 6·10^−7M.

[8] = test system: Cutibacterium acnes acneic strain ribotype 5 (RT5) HL043PA2/HM-514; test: Biofilm formation on glass slide, strain RT5; type: cell-based; settings: 72 h biofilm
Experimental: (§3) The Cutibacterium acnes acneic strain ribotype 5 (RT5) HL043PA2/HM-514 and the Cutibacterium acnes non-acneic strain ribotype 6 (RT6) HL110PA3/HM-554 were obtained from BEI Resources American Type Culture Collection (Virginia, United States). These two strains belong to the phylotypes IA1 and II, respectively (McDowell, 2017). Bacteria, stored at −80° C., were initially plated on brain-heart infusion (BHI, BD) agar plates for RT6 strain and on reinforced clostridial medium (RCM) agar plates for RT5 strain, and were incubated under anoxic conditions at 37° C. using a BD GasPack™ System. Colonies were transferred into sterile conical 15-mL tubes (Falcon) containing 12 ml of RCM and after vortexing for homogenization, the falcon tube is completely filled with RCM medium and incubated for 72 h at 37° C. […]
(§4) After 72 h (biofilm formation), the RCM medium was carefully removed in each well in order to remove planktonic cells. […] Syto 9 was excited at 488 nm and fluorescence emission was detected from 500 to 550 nm. […] Quantitative analyses of images stacks were performed using the COMSTAT software (see Worldwide Website: imageanalysis.dk/) (Heydorn et al., 2000). Maximal and average biofilm thickness (μm) and their biomass volume (μm^3/μm^2) were determined. […]

[9] = test system: Cutibacterium acnes non-acneic strain ribotype 6 (RT6) HL110PA3/HM-554; test: Biofilm formation on glass slide, strain RT6; type: cell-based; settings: 72 h biofilm
Experimental: as §3, §4

C. acnes = test: Inhibition of C. acnes proliferation, comparison with linear polylysine; type: cell-based, Cutibacterium acnes
[10] = Anti-inflammatory effect, comparison with linear polylysine

## poly(L-lysine) G2 [G2 dendrimer]
[1]
  MIC (minimum inhibitory concentration): 10-20 ppm and 20 ppm
[2]; 2.5×10^−7 M
  inhibition of adhesion of C. acnes on keratinocyte surfaces: 29%
[2]; 5×10^−6 M
  inhibition of adhesion of C. acnes on keratinocyte surfaces: 40%
[2]; 10^−5 M
  inhibition of adhesion of C. acnes on keratinocyte surfaces: 50%
[3]; 2.5×10^−6 M
  inhibition of adhesion of C. acnes on keratinocyte surfaces: 35%
[3]; 5×10^−6 M
  inhibition of adhesion of C. acnes on keratinocyte surfaces: 51%
[3]; 10^−5M
  inhibition of adhesion of C. acnes on keratinocyte surfaces: 50%
IL-8; dermal fibroblasts in vitro
  management of IL-8 production following IL1-α stimulation, acetate vs chloride or carbonate counter-anions: more effective
[4]; 2 ppm topical
  keratolytic effect (morphology of stratum corneum): moderate separation of the upper layers of the stratum corneum
[4]; 5 ppm topical
  keratolytic effect (morphology of stratum corneum): lower detachment
TLR2
  TLR2 overexpression induced by C. acnes: complete inhibition
IL1-α; 2 ppm, day 1
  decrease in IL1-α production compared to treatment with C. acnes: 49%
IL1-α; 2 ppm, day 4
  decrease in IL1-α production compared to treatment with C. acnes: 28%
IL1-α; 5 ppm, day 1
  decrease in IL1-α production compared to treatment with C. acnes: 42%
IL1-α; 5 ppm, day 4
  decrease in IL1-α production compared to treatment with C. acnes: 27%
[5]
  membrane rigidity (membrane fluidity) vs control: significantly decreased
[6]
  membrane rigidity (membrane fluidity) vs control: significantly decreased
[7]
  membrane rigidity (membrane fluidity) vs control: does not exhibit any significant effect
[8]
  change in biomass density in the biofilm: −50%
  change in thickness of the biofilm: −48%
[9]
  biomass density in the biofilm: no effect
  change in thickness of the biofilm: −32%
C. acnes
  inhibition of C. acnes proliferation compared with linear polylysine: more effective than linear polylysine
[10]
  anti-inflammatory effect compared with linear polylysine: more effective than linear polylysine

## C[C@]12CCC(=O)C=C1CC[C@@H]1[C@@H]2[C@@H](O)C[C@@]2(C)[C@H]1CC[C@]2(O)C(=O)CO [hydrocortisone, reference compound]
IL-8; NHDF, IL1-α 0.1 ng/mL, hydrocortisone 0.05 μg/mL
  decrease of IL-8 production: 83%
